In brackets after ≈: the same amount, converted by molar mass.

The experiment relates to P388. Briefly: Cytotoxicity against mouse P388 cells. In kind it is functional. The settings on record: read-out: ED50 (the source's name).
Take `CC1(C)CC(O)C[C@@]2(C)OC(=O)C=C12` (stereo partly specified): the EC50 amounted to 15 µg/mL (≈ 76.4 µM).
As for `O=c1c(O[C@@H]2O[C@H](CO)[C@@H](O)[C@H](O)[C@H]2O)c(-c2ccc(O)cc2)oc2cc(O)cc(O)c12` [ASTRAGALIN], the figure is 8.2 µg/mL (≈ 18.3 µM).
As for `O=C(O)c1cc(O)c(O)c(O)c1` [GALLIC ACID], the figure is 0.7 µg/mL (≈ 4.11 µM); as for `O=c1c(O)c(-c2ccc(O)cc2)oc2cc(O)cc(O)c12` [KAEMPFEROL], 6.7 µg/mL (≈ 23.4 µM); as for `O=c1c(O)c(-c2ccc(O)c(O)c2)oc2cc(O)cc(O)c12` [QUERCETIN], 40 µg/mL (≈ 132 µM).
The result for `CC[C@H](CC[C@@H](C)[C@H]1CC[C@H]2[C@@H]3CC=C4C[C@@H](O[C@@H]5O[C@H](CO)[C@@H](O)[C@H](O)[C@H]5O)CC[C@]4(C)[C@H]3CC[C@]12C)C(C)C` [SITOGLUSIDE] reads 53 µg/mL (≈ 91.9 µM).

Values taken from ChEMBL document CHEMBL1150761, “Additional biologically active constituents of the Chinese tallow tree (Sapium sebiferum)” (1988).
